# Experimental data as given in US7148244B2, “Medicines in controlling Vpr function” (Nippon Shinyaku Co. Ltd., priority 2001, dated 2006).
# Tests used:
# Vpr = Vpr (Human immunodeficiency virus type 1 group M subtype B, UniProt P12520); details: literature, Shimura M. et al. 1999; cited from earlier work
# FLAG-fused Vpr = target: T1, FLAG-fused Vpr (Human immunodeficiency virus type 1 group M subtype B, UniProt P12520); test: In vitro direct binding of Vpr and compound; affinity precipitation with compound-immobilized Sepharose beads; design: species or system HIV
# T1 construct: made in house; host or cells: TNT-coupled wheat germ extract in vitro transcription/translation (Promega), with 35S-methionine
# T1 sequence (P12520 whole entry, the tested form may be a part): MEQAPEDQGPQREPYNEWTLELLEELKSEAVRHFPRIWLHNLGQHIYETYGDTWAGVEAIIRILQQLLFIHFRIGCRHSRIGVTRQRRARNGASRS
# From the text: A Vpr gene fused to N-terminal FLAG (SEQ ID NO:1) was obtained by PCR (polymerase chain reaction) using as a template pBT-1 (purchased from ATCC) into which the HIV genome without env had been incorporated. Primers utilized were synthetic DNAs having the following sequences (SEQ ID NOs:1 and 2). N-terminal FLAG: Asp Tyr Lys Asp Asp Asp Asp Lys (SEQ ID NO:1);
# The DNA fragment of interest (300 bp) was recovered from PCR reaction products by agarose gel electrophoresis, and then cloned into the pGEM-T vector (Promega). This fragment was base analyzed on both plus and minus strands and was verified to correspond to the intended fused Vpr. The vector into which the Vpr gene fused to FLAG has been incorporated is hereinafter referred to as pGEM-T/Vpr-wt. […]
# (§1) Preparation of FLAG-fused Vpr was performed by transcription and translation from the T7 promoter employing the TNT-coupled wheat germ extract in vitro transcription/translation system (wheat germ extract transcription/translation system) (Promega). […] Whether these products were Vpr was analyzed by carrying out western blotting according to typical procedures employing an anti-FLAG antibody after samples resulting from transcription and translation in the absence of the radiolabel were denatured with SDS (sodium dodecylsulfate). […]
# FLAG-fused VprΔC = target: T2, FLAG-fused VprΔC (Human immunodeficiency virus type 1 group M subtype B, UniProt P12520); test: as above; design: species or system HIV; details: FIG. 2 (2) lane 5
# T2 construct: made in house; host or cells: TNT-coupled wheat germ extract in vitro transcription/translation (Promega), with 35S-methionine
# T2 sequence (P12520 1-72, stated change not applied): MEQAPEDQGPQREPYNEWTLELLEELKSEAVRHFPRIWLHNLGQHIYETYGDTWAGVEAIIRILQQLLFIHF
# From the text: The DNA fragment of interest (300 bp) was recovered from PCR reaction products by agarose gel electrophoresis, and then cloned into the pGEM-T vector (Promega). This fragment was base analyzed on both plus and minus strands and was verified to correspond to the intended fused Vpr. The vector into which the Vpr gene fused to FLAG has been incorporated is hereinafter referred to as pGEM-T/Vpr-wt. Furthermore, using this pGEM-T/Vpr-wt as a template, a second Vpr gene fused to FLAG in which a C-terminal region of Vpr (a.a. 73–96) was deleted was obtained by PCR utilizing primers shown below (SEQ ID Nos:4 and 5).
# This fused gene was cloned into the pGEM-T vector as described above, and the resulting vector is hereinafter referred to as pGEM-T/VprΔC. […]
# as §1
# HeLa = test: In vitro functional antagonism between flavonoid (quercetin) and compound; microscopic observation of cell morphologies; type: cell-based
# Procedure: Three types of cells were employed (HeLa, ECV304, and HBL-100, purchased from ATCC), and for each type, 1×10^5 cells were seeded in a 10 cm dish and cultured in D-MEM/F-12 medium (Gibco BRL) for 18–20 hours. On the next day, the medium was changed to the same medium containing 1.0 μM quercetin (Sigma; hereinafter abbreviated to QCT), followed by culturing for an additional 2 days. The compound A was then added at a concentration of 600 nM, and 72 hours later observations under a microscope were made of cell morphologies.
# Vpr, sequence (P12520 whole entry, the tested form may be a part): as the sequence (P12520 whole entry, the tested form may be a part) above
Structure (SMILES),effect on Vpr functions (Vpr),"binding of radiolabeled FLAG-fused Vpr to compound-immobilized beads (FLAG-fused Vpr; affinity precipitation, FIG. 2 (2) lane 3)",region of Vpr to which the compound binds (FLAG-fused Vpr; concluded from binding to Vpr and no binding to VprΔC),binding of radiolabeled FLAG-fused VprΔC (C-terminal a.a. 73–96 deleted) to compound-immobilized beads (FLAG-fused VprΔC),"effects of the compound after pre-treatment with quercetin (HeLa; HeLa cells, 1.0 μM quercetin for 48 hours, then compound 600 nM for 72 hours)","cell cycle state, cell morphology under a microscope (HeLa; HeLa cells, compound 600 nM alone, 72 hours, compared with the control group)","number of multinucleate cells having plural nuclei within single cells (HeLa; compound 600 nM alone, 72 hours, compared with the control group)"
O=c1c(O)c(-c2ccc(O)c(O)c2)oc2cc(O)cc(O)c12 [quercetin],inhibits Vpr functions,,,,,,
"COc1ccc(S(=O)(=O)Nc2c(/C=C/c3ccncc3)cccc2OCCN)cc1 [compound B, (E)-4-[2-{3-(2-aminoethyloxy)-2-[N-(4-methoxybenzenesulfonyl)amino]phenyl}ethenyl]pyridine]",,observed to bind,binds directly to the C-terminal region,not observed to bind,disappear almost completely,the cell cycle is arrested at the G2/M period,apparently increased
